Values of other authors, collected in patent US20200030399A1, “HERBAL COMPOSITIONS OF CALIFORNIA POPPY AND METHOD FOR THE TREATMENT OF SLEEP AND DREAM-RELATED DISORDERS” (MONDIAS NATURELS INC., priority 2017, published 2020).

Tests used:
[1] = system: dexamphetamine produced mortality; conditions: mice
[2] = system: stereotyped behaviour effects of dexamphetamine; conditions: mice
myorelaxant effects = conditions: mice
pentetylenetetrazole = conditions: mice
[3] = system: reserpine-induced ptosis, akinesia or hypothermia; conditions: mice
acetic acid writhing = conditions: mice; doses not given; dose-response for the extract
[4] = system: anticholinergic effects of Oxotremorine; conditions: mice

For `CN(C)CCCN1c2ccccc2Sc2ccc(Cl)cc21` [Chlorpromazine], which “protective effect against dexamphetamine produced mortality” value [1] is on record?
Its value is “a protective effect was observed”.

What about the “stereotyped behaviour effects of dexamphetamine” value [2] of the same compound?
The value was “significantly decreased”.

Which myorelaxant effects (myorelaxant effects) does the source give for `O=C(O)C1N=C(c2ccccc2)c2cc(Cl)ccc2NC1=O` (centres unmarked) [Clorazepate, Clorazepate dipotassium] here?
Its myorelaxant effects is “Dose-dependent anticonvulsant and myorelaxant effects”.

What about the anticonvulsant effects (pentetylenetetrazole) of the same compound?
Its anticonvulsant effects is “Dose-dependent anticonvulsant and myorelaxant effects”.

With `CN(C)CCC=C1c2ccccc2CCc2ccccc21` [amitryptiline] as the compound, how does the “effect against reserpine-induced ptosis, akinesia or hypothermia” value [3] read?
Its value is “significantly reduced ptosis and hypothermia”.

With `CC(=O)Nc1ccc(O)cc1` [paracetamol] as the compound, how does the “Protection against writing (acetic acid writhing)” value (acetic acid writhing) read?
The value was 60%.

Which “Protection against writing (acetic acid writhing)” value (acetic acid writhing) does the source give for `CC(=O)Oc1ccccc1C(=O)O` [acetylsalicylic acid] here?
Its value is 60%.

With `CN(C)CCCN1c2ccccc2CCc2ccccc21` [Imipramine] as the compound, how does the “effect against the anticholinergic effects of Oxotremorine” value [4] read?
Its value is “significantly reduced”.
